“And” between values parts separate entries of the source, which are not always exact repeats. Equal values may be shown once.
What was measured:
[1] = target: T1, apo-TDO2 (Homo sapiens, UniProt P48775); experiment: Differential scanning fluorimetry (thermal shift) of apo-TDO2; assay type: binding
T1 construct: a longer construct (His6-aa19-406, with aa406 corresponding to the wild type C-terminal residue), which was used for DSF and other experiments; made in house; host or cells: E. coli RP523 (hemB mutant, unable to synthesize heme)
Protocol: […] S5 online).
Protein thermal stability and small molecule ligand binding of TDO2 in vitro was studied using differential scanning fluorimetry (DSF, also known as thermal shift assay)[34]. Assay ingredients and ligands were combined to obtain a mixture composed of 10 µM TDO2 and 10x SYPRO Orange, in assay buffer (50 mM HEPES-NaOH pH 8.0, 200 mM NaCl, 2 mM TCEP, 10% glycerol) and 2% final DMSO concentration. Small molecule chemical ligands were taken from DMSO stock solution (100 mM, 10 mM) and diluted in DMSO transferred to wells of PCR Plates (Micro Amp Fast 96-well Reaction Plates, Applied Biosystems) to ensure matching final DMSO concentrations.
DSF was carried out with a StepOnePlus™ real time PCR system. Thermal denaturation of TDO2 was monitored with a ramp rate of 1 K/min. Protein melting curves were evaluated using the Thermal Shift Software v 1.3. (Thermo Fisher Scientific) to derive differences in midpoint melting-temperatures (derivative model). The thermal shift (DTm) is documented as the difference between the reference midpoint melting temperature of proteins (containing 500 µM AMT) in the presence of the ligand vehicle (DMSO) and in the presence of ligand.
Supplementary Table S2. Differential scanning fluorimetry data corresponding to supplementary figure S4. The experiments were carried out in quadruplicate, or in triplicate where single outlier values (highlighted in bold italics) were excluded from calculation of the melting curves. AMT was added at a concentration of 500 µM; […] and […] were added at a concentration of 25 µM.

[2] = system: holo-TDO2; design: method as in PMID 27762317; settings: AMT bound to exosite; cited from earlier work
[3] = system: patients with unresectable or metastatic melanoma; design: method as in PMID 31221619; settings: with pembrolizumab, vs placebo; cited from earlier work
[4] = apo-TDO2 + AMT 500 µM alone, shift vs apo, single replicates, in °C

T1 sequence (P48775 19-406): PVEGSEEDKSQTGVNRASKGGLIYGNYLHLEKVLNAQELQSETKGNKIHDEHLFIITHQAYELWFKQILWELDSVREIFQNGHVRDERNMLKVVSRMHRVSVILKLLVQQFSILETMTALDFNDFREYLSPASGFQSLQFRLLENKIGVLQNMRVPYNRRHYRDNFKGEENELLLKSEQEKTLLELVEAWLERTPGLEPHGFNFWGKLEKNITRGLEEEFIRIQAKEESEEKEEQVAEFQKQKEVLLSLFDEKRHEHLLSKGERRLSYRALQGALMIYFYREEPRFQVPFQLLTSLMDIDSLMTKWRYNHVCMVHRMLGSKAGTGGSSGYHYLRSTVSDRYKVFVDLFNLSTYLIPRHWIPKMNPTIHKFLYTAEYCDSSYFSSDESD

## C[C@](N)(Cc1c[nH]c2ccccc12)C(=O)O [AMT, α-methyltryptophan, reference compound]
[1]; 500 µM AMT present
  melting temperature of apo-TDO2 in the absence of inhibitor: 59.2 °C
[1]; [4]
  Δ Tm Boltzmann: 9.95 and 10.71 and 10.46
  Δ Tm Derivative: 9.6 and 10.48 and 10.27
[1]; apo-TDO2 + AMT 500 µM alone, single replicates (text b14 gives °C), in °C
  Tm Boltzmann: 58.75 and 59.51 and 59.26
[1]; apo-TDO2 + AMT 500 µM alone, single replicates, in °C
  Tm Derivative: 58.49 and 59.36 and 59.16
[2]
  effect on catalytic properties of holo-TDO2: not affecting the catalytic properties
  effect on proteolytic degradation of holo-TDO2: prevented its proteolytic degradation by the ubiquitin-dependent proteasomal pathway
  stabilization of isolated holo-TDO2 enzyme: stabilized the isolated holo-TDO2 enzyme against heat, urea and proteases

## NS(=O)(=O)NCCNc1nonc1C(=NO)Nc1ccc(F)c(Br)c1 [epacadostat]
[3]
  progression-free survival or overall survival: failed to show improved progression-free survival or overall survival compared with placebo

From PMC11561238, “Discovery and binding mode of small molecule inhibitors of the apo form of human TDO2” (Scientific Reports, 2024)
